This is an account of results in patent publication US12685746B2, “Cyclodextrin derivatives in the treatment or prevention of lysosomal neurodegenerative diseases” (CYCLOLAB CYCLODEXTRIN RESEARCH AND DEVELOPMENT LABORATORY …, priority 2020, dated 2026).

“Also recorded” adds a separate entry of the source.

Data set [1] deals with zebrafish model for Niemann Pick type C1 (U18666A administration). Kind of data set: Filipin staining of five day old zebrafish larvae pretreated with U18666A (cholesterol accumulation in the brain). It is filed as in vivo, Danio rerio. The note with it: for Reduction in U18666A induced cholesterol accumulation in the brain: result in words; for Heavy staining (number of larvae) / Light staining (number of larvae) / No staining (number of larvae): U18666A pretreated 5 dpf larvae; for No staining (number of larvae): fluorescence in head region; for Different from placebo: X2-test vs U18666A-placebo. On the procedure: Several cyclodextrin derivatives were evaluated in a zebrafish model for Niemann Pick type C1 (U18666A administration). Cholesterol accumulation in the brain was quantified by filipin staining of Danio rerio Casper (albino strain) larvae. Results were compared with the reference compound Hydroxypropyl-β-cyclodextrin (HPBCD).
In this study the best performing Cyclodextrins were as follows: Heptakis(2,6-di-O-methyl)-beta cyclodextrin, Octakis(2,3,6-tri-O-methyl)-gamma cyclodextrin, Sualfadex sodium, Subetadex sodium Sugammadex sodium. Filipin staining of five day old zebrafish larvae (Danio rerio, Casper strain) pretreated with U18666A were studied.
Fertilized eggs were hatched and kept in an incubator at 28° C.
CDs were administered from Stock solutions (0.1%) in standard E3 medium. Preparation of E3 medium was as follows:
The stock solutions were diluted with E3. Compounds were administered in the swimming water. Each concentration was tested in 25 larvae.
Experimental compounds were tested at a 0.05% concentration. As reference Hydroxypropyl-β-cyclodextrin (Sigma) was tested at a 0.5% concentration.
Treated 5 dpf Casper larvae were fixed for 30 minutes in 4% paraformaldehyde. After washing (2 times) with PBS, they were stained for 30 minutes with 50 μg/mL filipin (Sigma) in PBS solution. Then larvae were washed (with PBS) twice.
Whole larvae were embedded and images were captured on a Dino-Lite Digital USB microscope for GFP/FITC recordings (AM4115T4). Images were evaluated by an independent assessor, unaware of the treatments. The assessor scored the fluorescence in the head region as none, light or heavy.
Data were analysed by means of X2-tests. All conditions were compared to the U18666A—placebo treatment group.
Fluorescence was measured as an index for the amount of filipin staining. The higher the filipin staining the more cholesterol accumulation there is in the brain. Individual larvae were scored (by a blinded assessor) as either heavy coloured, light coloured or not coloured at all.

Data set [2] has as its system 5 dpf Danio rerio larvae treated with U18666A. Kind of data set: Mobility testing of U18666A-treated zebrafish larvae (DanioVision, distance moved). Format: in vivo. The note with it: U18666A 1 microg/ml 16 hours, then CD 24 hours (0.5-5%); result in words, values only in FIG. 1. On the procedure: Danio rerio larvae (strain AB, Casper) 5 days post fertilization (dpf) at day of testing were treated with U18666A dissolved in standard E3 medium. Reversal of U18666A (1 microg/ml) effects on overall activity of 5 dpf Danio rerio larvae by different CDs at different concentrations (0.5-5%) were tested. Larvae were pretreated with U18666A for 16 hours and thereafter treated with CD for 24 hours. Statistical analyses were performed for the individual experiments with two way ANOVA's followed by Tukey post hoc tests (** p<0.01). CDs were dissolved in standard E3 medium.
DanioVision Observation Chamber which is a complete system, designed for the high-throughput testing of zebrafish larvae in 48-wells plates. It includes an observation chamber and renowned EthoVision XT video tracking software to quantify distance moved by the animals. The results are graphically represented (distance moved—in arbritrary unit) in FIG. 1.

The nature of data set [3]: Phase solubility study: interaction of cyclodextrins with unesterified cholesterol. As to conditions: 24 hours equilibration at 25±3° C. Format: physicochemical. On the procedure: Phase solubility studies were performed in 5 ml solutions at room temperature, wherein cyclodextrin solutions of discrete concentrations were weighed and excess amount of cholesterol was added. After 24 hours equilibration time at 25±3° C. (using magnetic stirrer at 500 RPM), the dissolved equilibrium cholesterol concentrations were determined by HPLC after filtration through a syringe filter having polyethylene sulfone membrane of 0.45 micron nominal pore size. The experimentally determined cholesterol concentrations in the presence of different concentrations of HPBCD, Sualfadex sodium, Subetadex sodium and Sugammadex sodium are listed in Table 3.

For data set [4] the following is noted: literature studies; cited from earlier work.
The mark [5] stands for this setting: dose tested 0.05% in swimming water.
Where [6] appears, read: dose tested 0.5% in swimming water.

Take `COC[C@H]1O[C@@H]2O[C@H]3[C@H](O)[C@@H](OC)[C@@H](O[C@H]4[C@H](O)[C@@H](OC)[C@@H](O[C@H]5[C@H](O)[C@@H](OC)[C@@H](O[C@H]6[C@H](O)[C@@H](OC)[C@@H](O[C@H]7[C@H](O)[C@@H](OC)[C@@H](O[C@H]8[C@H](O)[C@@H](OC)[C@@H](O[C@H]1[C@H](O)[C@H]2OC)O[C@@H]8COC)O[C@@H]7COC)O[C@@H]6COC)O[C@@H]5COC)O[C@@H]4COC)O[C@@H]3COC` [Heptakis(2,6-di-O-methyl)-beta cyclodextrin]: in data set [1] (0.05%), the “Reduction in U18666A induced cholesterol accumulation in the brain” value (“Reduction” for short) is “only a small, non-significant, reduction”. Also, in data set [1] (setting [5]), the “Heavy staining (number of larvae)” value worked out at 13, the “Light staining (number of larvae)” value was 9 and the “No staining (number of larvae)” value was 1.

Take `O=C([O-])CCSC[C@H]1O[C@@H]2O[C@H]3[C@H](O)[C@@H](O)[C@@H](O[C@H]4[C@H](O)[C@@H](O)[C@@H](O[C@H]5[C@H](O)[C@@H](O)[C@@H](O[C@H]6[C@H](O)[C@@H](O)[C@@H](O[C@H]7[C@H](O)[C@@H](O)[C@@H](O[C@H]8[C@H](O)[C@@H](O)[C@@H](O[C@H]9[C@H](O)C(O)[C@@H](O[C@H]1[C@H](O)[C@H]2O)O[C@@H]9CSCCC(=O)[O-])O[C@@H]8CSCCC(=O)[O-])O[C@@H]7CSCCC(=O)[O-])O[C@@H]6CSCCC(=O)[O-])O[C@@H]5CSCCC(=O)[O-])O[C@@H]4CSCCC(=O)[O-])O[C@@H]3CSCCC(=O)[O-].[Na+].[Na+].[Na+].[Na+].[Na+].[Na+].[Na+].[Na+]` (stereo partly drawn) [Sugammadex sodium, 6A,6B,6C,6D,6E,7F,6G,6H-Octakis-S-(2-carboxyethyl)-6A,6B,6C,6D,6E,6F,6G,6H-octathio-gamma-cyclodextrin sodium salt]: the “Reduction” value in data set [1] (0.05%, sodium salt) is “significant cholesterol-accumulation hindering activity; also recorded: very strong reduction”. The “Heavy staining (number of larvae)” value in data set [1] (setting [5]) came out at 4. Also, the “Light staining (number of larvae)” value in data set [1] (setting [5]) was 15. For the same compound, the “No staining (number of larvae)” value in data set [1] (setting [5]) is reported as 5. Further, the Different from placebo result in data set [1] (dose tested 0.05%) was “*** (*** p<0.001)”. Moreover, in data set [2], the “Motoric activity of the test animals” value is “improved motoric activity”. For the same compound, the Dissolved cholesterol concentration worked out at 0.056 mg/mL in data set [3] (CD concentration 5 w/w %), 0.062 mg/mL in data set [3] (CD concentration 10 w/w %) and 0.150 mg/mL in data set [3] (CD concentration 15 w/w %).

For “6A,6B,6C,6D,6E,7F,6G-Heptakis-S-(2-carboxyethyl)-6A,6B,6C,6D,6E,6F,6G-heptathio-beta-cyclodextrin sodium salt [Subetadex sodium]”, in data set [1] (0.05%, sodium salt), the “Reduction” value is given as “significant cholesterol-accumulation hindering activity; also recorded: very strong reduction”. Besides, in data set [1] (setting [5]), the “Heavy staining (number of larvae)” value is on record as 5, the “Light staining (number of larvae)” value came out at 15 and the “No staining (number of larvae)” value was 4. Further, in data set [1] (dose tested 0.05%), the Different from placebo result is on record as “*** (*** p<0.001)”. Also, the “Motoric activity of the test animals” value in data set [2] is listed as “improved motoric activity”. For the same compound, in data set [3] (CD concentration 5 w/w %), the Dissolved cholesterol concentration was 0.062 mg/mL. In addition, the Dissolved cholesterol concentration in data set [3] (CD concentration 10 w/w %) was 0.092 mg/mL. Also, in data set [3] (CD concentration 15 w/w %), the Dissolved cholesterol concentration was determined as 0.246 mg/mL.

As to `O=C([O-])CCSC[C@H]1O[C@@H]2O[C@H]3[C@H](O)[C@@H](O)[C@@H](O[C@H]4[C@H](O)[C@@H](O)[C@@H](O[C@H]5[C@H](O)[C@@H](O)[C@@H](O[C@H]6[C@H](O)[C@@H](O)[C@@H](O[C@H]7[C@H](O)[C@@H](O)[C@@H](O[C@H]1[C@H](O)[C@H]2O)O[C@@H]7CSCCC(=O)[O-])O[C@@H]6CSCCC(=O)[O-])O[C@@H]5CSCCC(=O)[O-])O[C@@H]4CSCCC(=O)[O-])O[C@@H]3CSCCC(=O)[O-].[Na+].[Na+].[Na+].[Na+].[Na+].[Na+]` [Sualfadex sodium, 6A,6B,6C,6D,6E,7F-Hexakis-S-(2-carboxyethyl)-6A,6B,6C,6D,6E,6F-hexathio-alpha-cyclodextrin sodium], the “Reduction” value in data set [1] (0.05%) is “significant cholesterol-accumulation hindering activity; also recorded: very strong reduction”. In data set [1] (setting [5]), the “Heavy staining (number of larvae)” value is 4, the “Light staining (number of larvae)” value was 16 and the “No staining (number of larvae)” value was 4. For the same compound, in data set [1] (dose tested 0.05%), the Different from placebo result was “*** (*** p<0.001)”. The “Motoric activity of the test animals” value in data set [2] is on record as “improved motoric activity”. This compound also gave a Dissolved cholesterol concentration in data set [3] (CD concentration 5 w/w %) of 0.016 mg/mL. This compound came in with a Dissolved cholesterol concentration in data set [3] (CD concentration 10 w/w %) of 0.028 mg/mL. The compound further came in with a Dissolved cholesterol concentration in data set [3] (CD concentration 15 w/w %) of 0.051 mg/mL.

As to `COC[C@H]1O[C@H]2O[C@H]3[C@H](OC)[C@@H](OC)[C@H](O[C@H]4[C@H](OC)[C@@H](OC)[C@H](O[C@H]5[C@H](OC)[C@@H](OC)[C@H](O[C@H]6[C@H](OC)[C@@H](OC)[C@H](O[C@H]7[C@H](OC)[C@@H](OC)[C@H](O[C@H]8[C@H](OC)[C@@H](OC)[C@H](O[C@H]9[C@H](OC)[C@@H](OC)[C@H](O[C@H]1[C@H](OC)[C@H]2OC)O[C@@H]9COC)O[C@@H]8COC)O[C@@H]7COC)O[C@@H]6COC)O[C@@H]5COC)O[C@@H]4COC)O[C@@H]3COC` [Octakis(2,3,6-tri-O-methyl)-gamma cyclodextrin], in data set [1] (0.05%), the “Reduction” value was “only a small, non-significant, reduction”. In data set [1] (setting [5]), the “Heavy staining (number of larvae)” value turned out to be 13, the “Light staining (number of larvae)” value is listed as 11 and the “No staining (number of larvae)” value worked out at 0.

Consider `CC(O)COC[C@H]1O[C@@H]2O[C@H]3[C@H](O)[C@@H](O)[C@@H](O[C@H]4[C@H](O)[C@@H](O)[C@@H](O[C@H]5[C@H](O)[C@@H](O)[C@@H](O[C@H]6[C@H](O)[C@@H](O)[C@@H](O[C@H]7[C@H](O)[C@@H](O)[C@@H](O[C@H]8[C@H](O)[C@@H](O)[C@@H](O[C@H]1[C@H](O)[C@H]2O)O[C@@H]8COCC(C)O)O[C@@H]7COCC(C)O)O[C@@H]6COCC(C)O)O[C@@H]5COCC(C)O)O[C@@H]4COCC(C)O)O[C@@H]3COCC(C)O` (stereo partly drawn) [HPBCD, Hydroxypropyl-β-cyclodextrin], for which, in data set [1] (0.5%), the “Reduction” value is reported as “significantly reduced”. Further, in data set [1] (setting [6]), the “Heavy staining (number of larvae)” value was 9, the “Light staining (number of larvae)” value turned out to be 13 and the “No staining (number of larvae)” value was 2. In data set [1] (dose tested 0.5%), the Different from placebo entry is recorded as “* (* p<0.05)”. Also, in data set [3] (CD concentration 5 w/w %), the Dissolved cholesterol concentration came to 0.28 mg/mL. The compound further returned a Dissolved cholesterol concentration in data set [3] (CD concentration 10 w/w %) of 0.98 mg/mL. The Dissolved cholesterol concentration in data set [3] (CD concentration 15 w/w %) worked out at 2.06 mg/mL. The Ototoxicity result in data set [4] was “ototoxic”.
